Patent US9949475B2, “Composition comprising active ingredient, oil and ionic liquid” (priority 2011, dated 2018)
≈ marks a conversion by molar mass, not a printed value. Like-named read-outs stand apart in the source and are kept apart here.

Assay: Solubility of agrochemical active ingredient in oil comprising ionic liquid
Format: physicochemical
Settings: thermodynamic from solid, 21° C.
Description: Alternatively, the oil, which comprised the ionic liquid, was saturated with the active ingredient and the soluble fraction of active ingredient was quantified by means of HPLC. In the first line of the tables, in each case the weight ratios of oil to IL are given.

Compound: Cn1cc(C(=O)Nc2ccccc2-c2cc(F)c(F)c(F)c2)c(C(F)F)n1 [fluxapyroxad, 3-(difluoromethyl)-1-methyl-N-(3′,4′,5′-trifluorobiphenyl-2-yl)pyrazole-4-carboxamide]
- solubility (Cetiol B oil comprising ionic liquid, 21 °C, oil or lipid, Oil/IL 60/40 weight ratio, IL N-butyl-N′-methylimidazolium dimethylphosphate, read-out: Solubility of fluxapyroxad with Cetiol ® B as oil): 43.1 mg/mL
- solubility (Cetiol B oil comprising ionic liquid, 21 °C, oil or lipid, Oil/IL 60/40 weight ratio, IL N-ethyl-N′-ethylimidazolium propionate, read-out: Solubility of fluxapyroxad with Cetiol ® B as oil): 50.8 mg/mL
- solubility (Cetiol B oil comprising ionic liquid, 21 °C, oil or lipid, Oil/IL 60/40 weight ratio, IL N-ethyl-N′-methylimidazolium acetate, read-out: Solubility of fluxapyroxad with Cetiol ® B as oil): 54.9 mg/mL
- solubility (Cetiol B oil comprising ionic liquid, 21 °C, oil or lipid, Oil/IL 60/40 weight ratio, IL N-ethyl-N′-methylimidazolium dibutylphosphate, read-out: Solubility of fluxapyroxad with Cetiol ® B as oil): 46 mg/mL
- solubility (Cetiol B oil comprising ionic liquid, 21 °C, oil or lipid, Oil/IL 60/40 weight ratio, IL N-ethyl-N′-methylimidazolium heptanoate, read-out: Solubility of fluxapyroxad with Cetiol ® B as oil): 50 mg/mL
- solubility (Cetiol B oil comprising ionic liquid, 21 °C, oil or lipid, Oil/IL 60/40 weight ratio, IL N-ethyl-N′-methylimidazolium octanoate, read-out: Solubility of fluxapyroxad with Cetiol ® B as oil): 49.5 mg/mL
- solubility (Cetiol B oil comprising ionic liquid, 21 °C, oil or lipid, Oil/IL 60/40 weight ratio, IL N-propyl-N′-propylimidazolium acetate, read-out: Solubility of fluxapyroxad with Cetiol ® B as oil): 49.6 mg/mL
- solubility (Cetiol B oil comprising ionic liquid, 21 °C, oil or lipid, Oil/IL 60/40 weight ratio, IL Tetrabutylammonium [2-(2-methoxyethoxy)ethoxy]acetate, read-out: Solubility of fluxapyroxad with Cetiol ® B as oil): 40.8 mg/mL
- solubility (Cetiol B oil comprising ionic liquid, 21 °C, oil or lipid, Oil/IL 80/20 weight ratio, IL Cholinium octanoate, read-out: Solubility of fluxapyroxad with Cetiol ® B as oil): 20.8 mg/mL
- solubility (Cetiol B oil comprising ionic liquid, 21 °C, oil or lipid, Oil/IL 80/20 weight ratio, IL N-butyl-N′-methylimidazolium dimethylphosphate, read-out: Solubility of fluxapyroxad with Cetiol ® B as oil): 29 mg/mL
- solubility (Cetiol B oil comprising ionic liquid, 21 °C, oil or lipid, Oil/IL 80/20 weight ratio, IL N-ethyl-N′-methylimidazolium dibutylphosphate, read-out: Solubility of fluxapyroxad with Cetiol ® B as oil): 31.1 mg/mL
- solubility (Cetiol B oil comprising ionic liquid, 21 °C, oil or lipid, Oil/IL 80/20 weight ratio, IL N-ethyl-N′-methylimidazolium heptanoate, read-out: Solubility of fluxapyroxad with Cetiol ® B as oil): 35.9 mg/mL
- solubility (Cetiol B oil comprising ionic liquid, 21 °C, oil or lipid, Oil/IL 80/20 weight ratio, IL N-ethyl-N′-methylimidazolium octanoate, read-out: Solubility of fluxapyroxad with Cetiol ® B as oil): 34.3 mg/mL
- solubility (Cetiol B oil comprising ionic liquid, 21 °C, oil or lipid, Oil/IL 80/20 weight ratio, IL N-propyl-N′-propylimidazolium acetate, read-out: Solubility of fluxapyroxad with Cetiol ® B as oil): 35.4 mg/mL
- solubility (Cetiol B oil comprising ionic liquid, 21 °C, oil or lipid, Oil/IL 80/20 weight ratio, IL Tetrabutylammonium [2-(2-methoxyethoxy)ethoxy]acetate, read-out: Solubility of fluxapyroxad with Cetiol ® B as oil): 27.5 mg/mL
- solubility (Cetiol B oil comprising ionic liquid, 21 °C, oil or lipid, Oil/IL 90/10 weight ratio, IL N-butyl-N′-methylimidazolium acetate, read-out: Solubility of fluxapyroxad with Cetiol ® B as oil): 23.7 mg/mL
- solubility (Cetiol B oil comprising ionic liquid, 21 °C, oil or lipid, Oil/IL 90/10 weight ratio, IL N-ethyl-N′-ethylimidazolium propionate, read-out: Solubility of fluxapyroxad with Cetiol ® B as oil): 24.2 mg/mL
- solubility (Cetiol B oil comprising ionic liquid, 21 °C, oil or lipid, Oil/IL 90/10 weight ratio, IL N-ethyl-N′-methylimidazolium acetate, read-out: Solubility of fluxapyroxad with Cetiol ® B as oil): 25.6 mg/mL
- solubility (Cetiol B oil comprising ionic liquid, 21 °C, oil or lipid, Oil/IL 90/10 weight ratio, IL Tetrabutylammonium [2-(2-methoxyethoxy)ethoxy]acetate, read-out: Solubility of fluxapyroxad with Cetiol ® B as oil): 16 mg/mL
- solubility (Cetiol B oil without ionic liquid, 21 °C, oil or lipid, 100 Oil (Cetiol B, no IL), read-out: Solubility of fluxapyroxad with Cetiol ® B as oil): 3 mg/mL (≈ 7.87 mM)
- solubility (neat Agnique AMD 12 (N,N-dimethyldodecanamide) oil, 21 °C, oil or lipid, 100 Oil (Agnique AMD 12, no IL), read-out: Solubility of fluxapyroxad with Agnique AMD 12 ® (N,N-dimethyldodecanamide, lauryl N,N-dimethylamide) as oil): 21 mg/mL (≈ 55.1 mM)
- solubility (neat N-butyl-N′-methylimidazolium acetate (ionic liquid), organic solvent or mixture, 100 IL (no oil), IL N-butyl-N′-methylimidazolium acetate, read-out: Solubility of fluxapyroxad with Agnique AMD 12 ® (N,N-dimethyldodecanamide, lauryl N,N-dimethylamide) as oil): 1 mg/mL (≈ 2.62 mM)
- solubility (neat N-ethyl-N′-ethylimidazolium propionate (ionic liquid), 21 °C, organic solvent or mixture, 100 IL (no oil), IL N-ethyl-N′-ethylimidazolium propionate, read-out: Solubility of fluxapyroxad with Solvesso ® 200 ND as oil): 45.7 mg/mL (≈ 120 mM)
- solubility (neat N-ethyl-N′-methylimidazolium acetate (ionic liquid), organic solvent or mixture, 100 IL (no oil), IL N-ethyl-N′-methylimidazolium acetate, read-out: Solubility of fluxapyroxad with Agnique AMD 12 ® (N,N-dimethyldodecanamide, lauryl N,N-dimethylamide) as oil): 1 mg/mL (≈ 2.62 mM)
- solubility (neat Solvesso 200 ND (oil), 21 °C, oil or lipid, 100 Oil (Solvesso 200 ND, no IL), read-out: Solubility of fluxapyroxad with Solvesso ® 200 ND as oil): 1.5 mg/mL (≈ 3.93 mM)
- solubility (neat cholinium octanoate (ionic liquid), 21 °C, organic solvent or mixture, 100 IL (no oil), IL Cholinium octanoate, read-out: Solubility of fluxapyroxad with Cetiol ® B as oil): 5 mg/mL (≈ 13.1 mM)
- solubility (neat ionic liquid (no oil), 21 °C, organic solvent or mixture, 100 IL (no oil), IL N-butyl-N′-methylimidazolium acetate, read-out: Solubility of fluxapyroxad with Cetiol ® B as oil): 42.4 mg/mL (≈ 111 mM)
- solubility (neat ionic liquid (no oil), 21 °C, organic solvent or mixture, 100 IL (no oil), IL N-butyl-N′-methylimidazolium dimethylphosphate, read-out: Solubility of fluxapyroxad with Cetiol ® B as oil): 5 mg/mL (≈ 13.1 mM)
- solubility (neat ionic liquid (no oil), 21 °C, organic solvent or mixture, 100 IL (no oil), IL N-ethyl-N′-ethylimidazolium propionate, read-out: Solubility of fluxapyroxad with Cetiol ® B as oil): 45.7 mg/mL (≈ 120 mM)
- solubility (neat ionic liquid (no oil), 21 °C, organic solvent or mixture, 100 IL (no oil), IL N-ethyl-N′-methylimidazolium acetate, read-out: Solubility of fluxapyroxad with Cetiol ® B as oil): 47.2 mg/mL (≈ 124 mM)
- solubility (neat ionic liquid (no oil), 21 °C, organic solvent or mixture, 100 IL (no oil), IL N-ethyl-N′-methylimidazolium dibutylphosphate, read-out: Solubility of fluxapyroxad with Cetiol ® B as oil): 9.5 mg/mL (≈ 24.9 mM)
- solubility (neat ionic liquid (no oil), 21 °C, organic solvent or mixture, 100 IL (no oil), IL N-ethyl-N′-methylimidazolium heptanoate, read-out: Solubility of fluxapyroxad with Cetiol ® B as oil): 26.9 mg/mL (≈ 70.5 mM)
- solubility (neat ionic liquid (no oil), 21 °C, organic solvent or mixture, 100 IL (no oil), IL N-ethyl-N′-methylimidazolium octanoate, read-out: Solubility of fluxapyroxad with Cetiol ® B as oil): 20.8 mg/mL (≈ 54.5 mM)
- solubility (neat ionic liquid (no oil), 21 °C, organic solvent or mixture, 100 IL (no oil), IL N-propyl-N′-propylimidazolium acetate, read-out: Solubility of fluxapyroxad with Cetiol ® B as oil): 36.7 mg/mL (≈ 96.2 mM)
- solubility (neat ionic liquid (no oil), 21 °C, organic solvent or mixture, 100 IL (no oil), IL Tetrabutylammonium [2-(2-methoxyethoxy)ethoxy]acetate, read-out: Solubility of fluxapyroxad with Cetiol ® B as oil): 9.5 mg/mL (≈ 24.9 mM)
- solubility (neat ionic liquid (no oil), organic solvent or mixture, 100 IL (no oil), IL N-ethyl-N′-methylimidazolium isononanoate, read-out: Solubility of fluxapyroxad with Agnique AMD 12 ® (N,N-dimethyldodecanamide, lauryl N,N-dimethylamide) as oil): 9.5 mg/mL (≈ 24.9 mM)
- solubility (oil or lipid, Oil/IL 90/10 weight ratio, IL N-butyl-N′-methylimidazolium acetate, read-out: Solubility of fluxapyroxad with Agnique AMD 12 ® (N,N-dimethyldodecanamide, lauryl N,N-dimethylamide) as oil): 36 mg/mL
- solubility (oil/ionic liquid mixture, oil or lipid, Oil/IL 90/10 weight ratio, IL N-ethyl-N′-methylimidazolium isononanoate, read-out: Solubility of fluxapyroxad with Agnique AMD 12 ® (N,N-dimethyldodecanamide, lauryl N,N-dimethylamide) as oil): 32 mg/mL
- solubility (organic solvent or mixture, 100 IL (no oil), IL Tetrabutylammonium [2-(2-methoxyethoxy)ethoxy]acetate, read-out: Solubility of fluxapyroxad with Agnique AMD 12 ® (N,N-dimethyldodecanamide, lauryl N,N-dimethylamide) as oil): 9.5 mg/mL (≈ 24.9 mM)
